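Method: 48-hour compound exposure of cells in 96-well plates, five concentrations, linear interpolation of endpoints. At the TGI there is no net growth.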 Where a SMILES comes first, the peptide text is derived from it. [ ]: non-standard residue; d: D form. The star is where a group is joined. NMeV = CN[C@H](C(=O)O)C(C)C; X29 = COc1ccc(CN*)c(OC)c1; Octanoyl = CCCCCCCC(=O)*; dNMeA = CN[C@H](C)C(=O)O
Key:
Test in all cases: growth of human tumour cells (NCI), 48 h
OVCAR-3 ovarian = tested on: OVCAR-3 ovarian
UO-31 renal = tested on: UO-31 renal
SW-620 colon = tested on: SW-620 colon
T-47D breast = tested on: T-47D breast
ACHN renal = tested on: ACHN renal
OVCAR-4 ovarian = tested on: OVCAR-4 ovarian
A549 NSCLC = tested on: A549 NSCLC
K-562 leukemia = tested on: K-562 leukemia
MALME-3M melanoma = tested on: MALME-3M melanoma
HS 578T breast = tested on: HS 578T breast
EKVX NSCLC = tested on: EKVX NSCLC
SF-295 CNS = tested on: SF-295 CNS
HL-60(TB) leukemia = tested on: HL-60(TB) leukemia
NCI-H23 lung = tested on: NCI-H23 lung
SK-OV-3 ovarian = tested on: SK-OV-3 ovarian
A498 renal = tested on: A498 renal
DU-145 prostate = tested on: DU-145 prostate
BT-549 breast = tested on: BT-549 breast

SMILES: CCC1(c2ccccc2)C(=O)N=C(c2ccccc2)N1CCc1ccccc1 (configuration not stated)
- TGI (OVCAR-3 ovarian): > 100 µM
- TGI (UO-31 renal): > 100 µM
- TGI (SW-620 colon): > 100 µM
- TGI (T-47D breast): > 100 µM
- TGI (ACHN renal): > 100 µM
- TGI (OVCAR-4 ovarian): > 100 µM
- TGI (A549 NSCLC): > 100 µM
- TGI (K-562 leukemia): > 100 µM
- TGI (MALME-3M melanoma): > 100 µM
- TGI (HS 578T breast): > 100 µM
- TGI (EKVX NSCLC): > 100 µM
- TGI (SF-295 CNS): > 100 µM
- TGI (HL-60(TB) leukemia): > 100 µM
- TGI (NCI-H23 lung): > 100 µM
- TGI (SK-OV-3 ovarian): > 100 µM
- TGI (A498 renal): > 100 µM
- TGI (DU-145 prostate): > 100 µM
- TGI (BT-549 breast): > 100 µM

SMILES: CC1=NN(C(=O)c2ccncc2)C(=O)C1
- TGI (OVCAR-3 ovarian): > 100 µM
- TGI (UO-31 renal): > 100 µM
- TGI (SW-620 colon): > 100 µM
- TGI (T-47D breast): > 100 µM
- TGI (ACHN renal): > 100 µM
- TGI (OVCAR-4 ovarian): > 100 µM
- TGI (A549 NSCLC): > 100 µM
- TGI (K-562 leukemia): > 100 µM
- TGI (MALME-3M melanoma): > 100 µM
- TGI (HS 578T breast): > 100 µM
- TGI (EKVX NSCLC): > 100 µM
- TGI (SF-295 CNS): > 100 µM
- TGI (HL-60(TB) leukemia): > 100 µM
- TGI (NCI-H23 lung): > 100 µM
- TGI (SK-OV-3 ovarian): > 100 µM
- TGI (A498 renal): > 100 µM
- TGI (DU-145 prostate): > 100 µM
- TGI (BT-549 breast): > 100 µM

SMILES: O=C1C=CC2(C=C1)O[C@H](Cc1ccccc1)[C@@H](Cc1ccccc1)O2
- TGI (OVCAR-3 ovarian): 1.17 µM
- TGI (UO-31 renal): 0.69 µM
- TGI (SW-620 colon): 0.254 µM
- TGI (T-47D breast): > 100 µM
- TGI (ACHN renal): 0.958 µM
- TGI (OVCAR-4 ovarian): 1.69 µM
- TGI (A549 NSCLC): 18.7 µM
- TGI (K-562 leukemia): 5.58 µM
- TGI (MALME-3M melanoma): 4.77 µM
- TGI (HS 578T breast): 2.42 µM
- TGI (EKVX NSCLC): 1.76 µM
- TGI (SF-295 CNS): 5.15 µM
- TGI (HL-60(TB) leukemia): 6.52 µM
- TGI (NCI-H23 lung): 3.48 µM
- TGI (SK-OV-3 ovarian): 13.7 µM
- TGI (A498 renal): 16.6 µM
- TGI (DU-145 prostate): 5.89 µM
- TGI (BT-549 breast): 0.563 µM

SMILES: O=C1OCC2OC(=O)c3cc(O)c(O)c(O)c3-c3c(O)c(O)c(O)c4c3C(=O)OC(C2OC(=O)c2cc(O)c(O)c(O)c2-c2c1cc(O)c(O)c2O)C1OC(=O)c2c-4c(O)c(O)c(O)c2[C@@H]1C(O)C(O)C(O)C(O)CO (some centres not stated)
- TGI (OVCAR-3 ovarian): 80.6 µM
- TGI (UO-31 renal): 33.8 µM
- TGI (SW-620 colon): 44.5 µM
- TGI (T-47D breast): 45.2 µM
- TGI (ACHN renal): 30.7 µM
- TGI (OVCAR-4 ovarian): 41 µM
- TGI (A549 NSCLC): 43.7 µM
- TGI (K-562 leukemia): 33.3 µM
- TGI (MALME-3M melanoma): 38.9 µM
- TGI (HS 578T breast): 70.3 µM
- TGI (EKVX NSCLC): 51.1 µM
- TGI (SF-295 CNS): 43.7 µM
- TGI (HL-60(TB) leukemia): 50.8 µM
- TGI (NCI-H23 lung): 43.5 µM
- TGI (SK-OV-3 ovarian): 59 µM
- TGI (A498 renal): > 100 µM
- TGI (DU-145 prostate): 47.5 µM
- TGI (BT-549 breast): 55.2 µM

SMILES: CCCCCCCC(=O)N[C@H](C(=O)N[C@H](C(=O)N(C)[C@H](C(=O)N1CCC[C@H]1C(=O)N(C)[C@H](C)C(=O)NCc1ccc(OC)cc1OC)C(C)C)C(C)C)C(C)C (Octanoyl-VV[NMeV]P[dNMeA]-X29)
- TGI (OVCAR-3 ovarian): > 100 µM
- TGI (UO-31 renal): > 100 µM
- TGI (SW-620 colon): > 100 µM
- TGI (T-47D breast): > 100 µM
- TGI (ACHN renal): 42.4 µM
- TGI (OVCAR-4 ovarian): > 79.9 µM
- TGI (A549 NSCLC): 99 µM
- TGI (K-562 leukemia): > 100 µM
- TGI (MALME-3M melanoma): 24.3 µM
- TGI (HS 578T breast): 33.4 µM
- TGI (EKVX NSCLC): 97.3 µM
- TGI (SF-295 CNS): > 88.7 µM
- TGI (HL-60(TB) leukemia): 11.3 µM
- TGI (NCI-H23 lung): > 82.4 µM
- TGI (SK-OV-3 ovarian): > 100 µM
- TGI (A498 renal): 12.2 µM
- TGI (DU-145 prostate): > 100 µM
- TGI (BT-549 breast): > 61.2 µM

SMILES: COc1ccc(C(=O)/C=C/c2ccc(O)c(O)c2)c(OC)c1
- TGI (OVCAR-3 ovarian): 2.66 µM
- TGI (UO-31 renal): 41.6 µM
- TGI (SW-620 colon): > 63.8 µM
- TGI (T-47D breast): > 100 µM
- TGI (ACHN renal): > 70.3 µM
- TGI (OVCAR-4 ovarian): > 100 µM
- TGI (A549 NSCLC): 97.3 µM
- TGI (K-562 leukemia): > 37.6 µM
- TGI (MALME-3M melanoma): 21.8 µM
- TGI (HS 578T breast): > 100 µM
- TGI (EKVX NSCLC): > 79.6 µM
- TGI (SF-295 CNS): 31 µM
- TGI (HL-60(TB) leukemia): 2.53 µM
- TGI (NCI-H23 lung): 18.3 µM
- TGI (SK-OV-3 ovarian): > 67.9 µM
- TGI (A498 renal): 21.2 µM
- TGI (DU-145 prostate): 15.7 µM
- TGI (BT-549 breast): 20.4 µM

SMILES: CC(C)(C)c1cc2c(OC/C=C/c3ccccc3)c(c1)Cc1cc(C(C#N)(OC/C=C/c3ccccc3)OC/C=C/c3ccccc3)cc(c1OC/C=C\c1ccccc1)Cc1cc(C(C)(C)C)cc(c1OC/C=C/c1ccccc1)Cc1cc(C(C#N)(OC/C=C\c3ccccc3)OC/C=C/c3ccccc3)cc(c1OC/C=C\c1ccccc1)C2 (configuration not stated)
- TGI (OVCAR-3 ovarian): > 100 µM
- TGI (UO-31 renal): > 100 µM
- TGI (SW-620 colon): > 100 µM
- TGI (T-47D breast): > 100 µM
- TGI (ACHN renal): > 100 µM
- TGI (OVCAR-4 ovarian): > 100 µM
- TGI (A549 NSCLC): > 100 µM
- TGI (K-562 leukemia): > 100 µM
- TGI (MALME-3M melanoma): > 100 µM
- TGI (HS 578T breast): > 100 µM
- TGI (EKVX NSCLC): > 100 µM
- TGI (SF-295 CNS): > 100 µM
- TGI (HL-60(TB) leukemia): > 100 µM
- TGI (NCI-H23 lung): > 100 µM
- TGI (SK-OV-3 ovarian): > 100 µM
- TGI (A498 renal): > 100 µM
- TGI (DU-145 prostate): > 100 µM
- TGI (BT-549 breast): > 100 µM

SMILES: COc1c(Br)cc2c(c1OC)C(Br)CCC(Br)(Br)C2=O (configuration not stated)
- TGI (OVCAR-3 ovarian): 2.91 µM
- TGI (UO-31 renal): 2.89 µM
- TGI (SW-620 colon): 1.58 µM
- TGI (T-47D breast): 4.84 µM
- TGI (ACHN renal): 5.21 µM
- TGI (OVCAR-4 ovarian): 6.87 µM
- TGI (A549 NSCLC): 16.2 µM
- TGI (K-562 leukemia): 8.76 µM
- TGI (MALME-3M melanoma): 10.8 µM
- TGI (HS 578T breast): > 71.7 µM
- TGI (EKVX NSCLC): 14.6 µM
- TGI (SF-295 CNS): 6.77 µM
- TGI (HL-60(TB) leukemia): 3.09 µM
- TGI (NCI-H23 lung): 3.71 µM
- TGI (SK-OV-3 ovarian): 10.5 µM
- TGI (A498 renal): 12.3 µM
- TGI (DU-145 prostate): 9.64 µM
- TGI (BT-549 breast): 1.37 µM

SMILES: O=C(NC1CCCCC1NC(c1ccccc1)(c1ccccc1)c1ccccc1)C(=O)NC1CCCCC1NC(c1ccccc1)(c1ccccc1)c1ccccc1 (configuration not stated)
- TGI (OVCAR-3 ovarian): > 100 µM
- TGI (UO-31 renal): > 100 µM
- TGI (SW-620 colon): > 100 µM
- TGI (T-47D breast): > 100 µM
- TGI (ACHN renal): > 100 µM
- TGI (OVCAR-4 ovarian): 76.3 µM
- TGI (A549 NSCLC): > 100 µM
- TGI (K-562 leukemia): > 100 µM
- TGI (MALME-3M melanoma): > 100 µM
- TGI (HS 578T breast): 72.5 µM
- TGI (EKVX NSCLC): > 100 µM
- TGI (SF-295 CNS): > 100 µM
- TGI (HL-60(TB) leukemia): > 100 µM
- TGI (NCI-H23 lung): > 100 µM
- TGI (SK-OV-3 ovarian): 92.8 µM
- TGI (A498 renal): > 100 µM
- TGI (DU-145 prostate): > 100 µM
- TGI (BT-549 breast): > 100 µM

— PubChem BioAssay (NCI)
